# Assay results from US4759929A, “Novel treatment” (Cabinet Harle & Phelip, priority 1987, dated 1988).
# What was measured:
# E. Coli RNA polymerases = E. Coli RNA polymerases (Escherichia coli, UniProt P0A8T7+P0A8V2); conditions: known; cited from earlier work
# [1] = target: SAIDS virus reverse transcriptase (Simian retrovirus SRV-1, UniProt P04025); assay: Reverse transcriptase assay, SAIDS virus; assay type: biochemical, Simian AIDS (SAIDS) virus; conditions: for Percent inhibition / p. mole incorporated: SAIDS virus; for p. mole incorporated: control 0.43
# SAIDS virus reverse transcriptase, sequence (P04025 913-1497): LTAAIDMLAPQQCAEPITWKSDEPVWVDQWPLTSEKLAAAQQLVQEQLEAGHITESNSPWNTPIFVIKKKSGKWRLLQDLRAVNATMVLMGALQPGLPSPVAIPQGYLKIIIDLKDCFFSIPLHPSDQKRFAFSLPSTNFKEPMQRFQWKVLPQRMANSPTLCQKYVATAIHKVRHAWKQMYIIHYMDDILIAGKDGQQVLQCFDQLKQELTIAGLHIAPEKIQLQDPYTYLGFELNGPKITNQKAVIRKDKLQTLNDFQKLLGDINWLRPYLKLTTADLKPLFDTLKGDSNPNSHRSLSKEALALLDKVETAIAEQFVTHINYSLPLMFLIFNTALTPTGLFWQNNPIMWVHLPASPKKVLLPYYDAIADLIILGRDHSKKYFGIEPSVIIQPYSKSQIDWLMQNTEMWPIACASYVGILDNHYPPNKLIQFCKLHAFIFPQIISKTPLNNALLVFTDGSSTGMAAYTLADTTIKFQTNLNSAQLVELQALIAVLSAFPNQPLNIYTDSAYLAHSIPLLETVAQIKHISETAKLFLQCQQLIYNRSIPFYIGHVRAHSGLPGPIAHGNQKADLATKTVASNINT
# Procedure: Simian AIDS (SAIDS) virus producing cells were provided by Murray Gardner, M.D. and supernatants of cell cultures were concentrated using polyethylene glycol (PEG) 10 percent precipitation. The precipitate was purified on a 20 to 60 percent sucrose gradient (50,000 g, 2.5 hours). Reverse transcriptase assays (see legend Table I) were performed on each fraction from the collected gradient. Maximum RT activity was found at a density of 1.18.
# (§1) Assay mixtures are indicated in the legend of Table I. The reaction was stopped by treating the mixtures with sodium pyrophosphate and trichloracetic acid. The results are given as picomoles of tritiated deoxyribonucleotides monophosphate incorporated into DNA after 1 hour at 37° C.
# (§2) HPA 23 inhibition of reverse transcriptase of SAIDS virus and LAV.
# (§3) Reaction mixture (50 μl) contains: Tris 50 mM pH 7.9, 5 mM MgCl2,
# (§4) OD/ml Oligo dT 12-18, and 200 pM ^3 HTTP (25 Ci/mM).
# [2] = tested on: MLV reverse transcriptase; conditions: previously described; cited from earlier work
# [3] = tested on: natural killer (NK) and killer cells (ADCC) function; conditions: cited from earlier work
# cell growth = assay: Inhibition of cell growth; assay type: cell-based
# [4] = tested on: mammalian cellular DNA polymerases; conditions: known; cited from earlier work
# [5] = Pharmacokinetic studies in patient, I.V bolus infusion; assay type: in vivo, human; conditions: patient 1; I.V bolus infusion (about two minutes)
# E. Coli DNA polymerases = conditions: known; cited from earlier work
# pancreatic DNase = pancreatic DNase (Bos taurus, UniProt P00639); assay: Inhibition of pancreatic DNase (unpublished results); assay type: biochemical
# pancreatic DNase, sequence (P00639 23-282): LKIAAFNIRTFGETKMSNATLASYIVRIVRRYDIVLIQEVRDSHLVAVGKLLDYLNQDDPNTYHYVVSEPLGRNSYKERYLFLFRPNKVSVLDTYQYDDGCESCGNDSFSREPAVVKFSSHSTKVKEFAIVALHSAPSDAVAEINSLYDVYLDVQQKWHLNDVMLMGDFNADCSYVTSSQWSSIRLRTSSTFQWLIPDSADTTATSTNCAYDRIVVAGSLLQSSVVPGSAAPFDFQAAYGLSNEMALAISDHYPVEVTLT
# scrapie = conditions: mice infected with scrapie; cited from earlier work
# [6] = target: T1, LAV purified reverse transcriptase (Human immunodeficiency virus type 1 group M subtype B, UniProt P03367); assay: Lineweaver-Burk kinetics, varying poly A oligo dT12-18 template primer concentration; assay type: biochemical, Lymphadenopathy associated virus (LAV); conditions: for HPA23 inhibition: LAV purified RT, FIG. 1 legend
# T1 construct: made in house
# Procedure: The results of the Lineweaver-Burk plots of the effects of varying concentration of poly An oligo dT12-18 at two different HPA23 concentrations are summarized in FIG. 1. In the experimental conditions, kinetic enzymatic parameters are: KM=2.18 nM of polyA oligo dT, Vmax=0.02 pM of 3 HTMP incorporated sec^-1. […] The interaction of HPA23 with the template primer-enzyme complex should take place at the binding site of the template primer.
# Lineweaver-Burk representation of the influence of poly A oligo T12-18 template concentration on the inhibition by HPA23 of LAV purified reverse transcriptase
# A: picomoles of ^3 H TMP incorporated in five minutes at 37° C.
# B: template primer concentration (OD ml^-1)
# : control (no inhibition)
# : inhibition dose corresponds to 65 percent HPA23 inhibition (19 μg/ml)
# inhibition dose corresponds to 80 percent HPA23 inhibition (40 μg/ml)
# Each plot-point is the mean of three experiments.
# E. Coli RNase H = E. Coli RNase H (Escherichia coli, UniProt P0A7Y4); assay: Inhibition of E. Coli RNase H (unpublished results); assay type: biochemical
# E. Coli RNase H, sequence (P0A7Y4 whole entry): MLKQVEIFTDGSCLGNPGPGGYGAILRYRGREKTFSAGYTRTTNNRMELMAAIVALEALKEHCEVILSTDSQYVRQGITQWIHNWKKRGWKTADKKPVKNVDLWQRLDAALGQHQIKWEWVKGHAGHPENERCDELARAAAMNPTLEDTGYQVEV
# [7] = target: T2, LAV reverse transcriptase (Human immunodeficiency virus type 1 group M subtype B, UniProt P03367); assay: Reverse transcriptase assay, LAV virus (non purified RT); assay type: biochemical, Lymphadenopathy associated virus (LAV); conditions: for ID50: LAV virus (non purified RT), 1 hour at 37° C.; for Percent inhibition / p. mole incorporated: LAV virus; for p. mole incorporated: control 0.13
# T2 construct: made in house; host or cells: LAV virions, PEG concentrated and sucrose gradient purified
# Procedure: Lymphadenopathy associated virus (LAV) was purified. Briefly, after clarification, the virus was concentrated by PEG (10 percent), and then centrifuged for 1.5 hours at 55,000 g (IEC type SB 498 rotor) on a 10 to 60 percent sucrose gradient. Reverse transcriptase assays were performed on each fraction and the maximum RT activity was found at a density of 1.16 and corresponded to the purified virus fraction.
# as §1, §2, §3, §4
# [8] = target: T1, LAV purified reverse transcriptase; assay: Reverse transcriptase assay, LAV purified RT; assay type: biochemical, Lymphadenopathy associated virus (LAV); conditions: for p. mole incorporated: control 0.11
# Procedure: LAV RT was purified. Briefly, 10^9 LAV infected cells were washed two times in PBS, resuspended in Tris 50 mM (pH 7.5) KCl 500 mM, ethylene diamine tetracetic acid (EDTA) 0.1 mM, dithiothreitol 1 mM and glycerol 10 percent, and frozen in liquid nitrogen. After incubation with Triton X100 0.01 percent at 37° C. (15 Min), cell homogenates were centrifuged at 100,000 g for one hour and the supernatant dialyzed six hours (KCl 100 mM). The dialyzate was chromatographed on a phosphocellulse column. RT and DNA polymerases were eluted from the column with a 0.1M to 1M KCl gradient.
# as §1, §2, §3, §4
# [9] = tested on: Friend viruses and the plasma variant of Chirigos virus; conditions: in vivo; cited from earlier work
# T4 + Lymphocytes = assay: T4+ lymphocytes number in treated patients; assay type: in vivo, human; conditions: four patients; after therapy
# [10] = tested on: lymphatic choriomeningitis virus; conditions: adult mice acutely infected; cited from earlier work
# β DNA polymerase = β DNA polymerase (Mus musculus, UniProt Q8K409); conditions: cited from earlier work
# AIDS or related syndrome = assay: Clinical features after HPA23 treatment; assay type: in vivo, human
# [11] = tested on: spontaneous mammary tumors; conditions: C3 HBi mice; cited from earlier work
# pancreatic RNase = pancreatic RNase (Bos taurus, UniProt P61823); assay: Inhibition of pancreatic RNase (unpublished results); assay type: biochemical
# pancreatic RNase, sequence (P61823 27-150): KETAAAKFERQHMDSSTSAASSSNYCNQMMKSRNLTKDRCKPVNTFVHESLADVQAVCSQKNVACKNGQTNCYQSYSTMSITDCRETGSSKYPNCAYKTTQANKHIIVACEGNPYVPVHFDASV
# LAV = assay: Isolation of LAV from peripheral blood T cell cultures and cocultures of treated patients (RT activity in supernatant)
# mouse α DNA polymerase = mouse α DNA polymerase (Mus musculus, UniProt P33609); conditions: required doses much higher than those inhibiting reverse transcriptase; cited from earlier work
# encephalomyocarditis = conditions: mice; cited from earlier work
# E. Coli RNA polymerases, sequence (P0A8V2 whole entry): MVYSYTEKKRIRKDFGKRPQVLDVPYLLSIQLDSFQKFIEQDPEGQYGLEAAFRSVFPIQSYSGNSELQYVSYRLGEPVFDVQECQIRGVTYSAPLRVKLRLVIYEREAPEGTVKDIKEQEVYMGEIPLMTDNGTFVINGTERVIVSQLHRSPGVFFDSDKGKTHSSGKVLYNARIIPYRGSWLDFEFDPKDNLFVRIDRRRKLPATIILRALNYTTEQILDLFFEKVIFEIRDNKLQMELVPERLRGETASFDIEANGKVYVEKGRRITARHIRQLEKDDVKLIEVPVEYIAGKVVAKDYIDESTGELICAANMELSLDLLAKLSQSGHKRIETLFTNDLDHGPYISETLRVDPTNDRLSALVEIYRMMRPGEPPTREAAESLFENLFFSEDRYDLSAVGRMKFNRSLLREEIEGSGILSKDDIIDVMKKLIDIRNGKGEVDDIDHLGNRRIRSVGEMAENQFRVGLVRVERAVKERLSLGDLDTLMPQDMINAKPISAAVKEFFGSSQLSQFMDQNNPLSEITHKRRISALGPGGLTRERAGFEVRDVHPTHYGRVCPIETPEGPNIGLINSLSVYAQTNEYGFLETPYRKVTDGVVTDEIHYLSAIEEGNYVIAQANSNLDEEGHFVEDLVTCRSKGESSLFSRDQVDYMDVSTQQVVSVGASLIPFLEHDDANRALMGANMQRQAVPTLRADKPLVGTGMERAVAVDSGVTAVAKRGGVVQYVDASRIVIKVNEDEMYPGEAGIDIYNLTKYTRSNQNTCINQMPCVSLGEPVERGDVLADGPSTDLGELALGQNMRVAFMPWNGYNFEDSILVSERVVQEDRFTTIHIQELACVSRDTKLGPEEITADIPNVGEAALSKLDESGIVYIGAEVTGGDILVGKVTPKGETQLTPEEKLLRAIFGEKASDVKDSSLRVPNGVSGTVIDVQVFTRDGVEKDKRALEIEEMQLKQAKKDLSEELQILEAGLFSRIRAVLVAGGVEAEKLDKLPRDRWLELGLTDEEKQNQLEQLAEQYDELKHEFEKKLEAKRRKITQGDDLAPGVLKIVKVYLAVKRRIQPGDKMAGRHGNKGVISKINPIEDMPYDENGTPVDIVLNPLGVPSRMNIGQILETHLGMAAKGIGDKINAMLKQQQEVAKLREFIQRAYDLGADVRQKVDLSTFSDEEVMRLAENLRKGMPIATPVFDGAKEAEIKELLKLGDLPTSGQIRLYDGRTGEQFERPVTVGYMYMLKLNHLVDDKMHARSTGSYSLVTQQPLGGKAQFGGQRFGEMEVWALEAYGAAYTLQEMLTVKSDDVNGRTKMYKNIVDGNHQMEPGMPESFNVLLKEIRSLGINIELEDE
# E. Coli RNA polymerases, sequence (P0A8T7 whole entry): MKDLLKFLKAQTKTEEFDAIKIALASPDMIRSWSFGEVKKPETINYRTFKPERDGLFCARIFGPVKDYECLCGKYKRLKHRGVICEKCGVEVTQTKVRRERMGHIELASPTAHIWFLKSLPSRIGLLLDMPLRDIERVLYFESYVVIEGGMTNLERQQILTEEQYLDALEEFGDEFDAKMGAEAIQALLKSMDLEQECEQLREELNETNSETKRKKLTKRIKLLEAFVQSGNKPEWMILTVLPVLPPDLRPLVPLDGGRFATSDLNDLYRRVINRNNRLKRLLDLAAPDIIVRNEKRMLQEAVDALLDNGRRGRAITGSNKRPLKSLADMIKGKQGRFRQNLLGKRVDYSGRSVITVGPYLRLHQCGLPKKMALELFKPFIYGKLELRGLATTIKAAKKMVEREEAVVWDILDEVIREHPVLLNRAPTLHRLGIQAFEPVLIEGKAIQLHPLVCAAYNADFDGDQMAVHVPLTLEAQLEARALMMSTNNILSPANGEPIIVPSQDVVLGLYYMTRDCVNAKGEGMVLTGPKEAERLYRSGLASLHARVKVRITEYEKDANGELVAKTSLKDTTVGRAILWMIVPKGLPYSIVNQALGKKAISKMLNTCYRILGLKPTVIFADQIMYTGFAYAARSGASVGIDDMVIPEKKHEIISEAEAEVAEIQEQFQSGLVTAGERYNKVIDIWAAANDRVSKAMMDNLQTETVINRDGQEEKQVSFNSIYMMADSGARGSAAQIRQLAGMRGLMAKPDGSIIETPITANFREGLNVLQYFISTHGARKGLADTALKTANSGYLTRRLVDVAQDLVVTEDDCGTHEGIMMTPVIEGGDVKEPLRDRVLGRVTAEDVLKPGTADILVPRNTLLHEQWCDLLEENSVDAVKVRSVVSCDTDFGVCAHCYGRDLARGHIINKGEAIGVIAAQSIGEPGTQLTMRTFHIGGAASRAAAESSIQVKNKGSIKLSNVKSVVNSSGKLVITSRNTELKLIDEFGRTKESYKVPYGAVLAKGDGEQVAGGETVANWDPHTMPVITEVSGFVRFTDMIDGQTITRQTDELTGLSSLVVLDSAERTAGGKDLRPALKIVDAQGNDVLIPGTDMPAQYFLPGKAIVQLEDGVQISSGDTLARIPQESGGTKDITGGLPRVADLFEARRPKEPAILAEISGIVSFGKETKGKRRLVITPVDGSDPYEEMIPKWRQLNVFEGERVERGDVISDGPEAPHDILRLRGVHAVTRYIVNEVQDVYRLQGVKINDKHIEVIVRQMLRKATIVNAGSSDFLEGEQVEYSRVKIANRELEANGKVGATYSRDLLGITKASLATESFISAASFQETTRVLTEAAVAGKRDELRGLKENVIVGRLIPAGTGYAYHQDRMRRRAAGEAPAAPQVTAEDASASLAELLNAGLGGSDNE
# E. Coli RNA polymerases, sequence (P0A7Z4 whole entry partner): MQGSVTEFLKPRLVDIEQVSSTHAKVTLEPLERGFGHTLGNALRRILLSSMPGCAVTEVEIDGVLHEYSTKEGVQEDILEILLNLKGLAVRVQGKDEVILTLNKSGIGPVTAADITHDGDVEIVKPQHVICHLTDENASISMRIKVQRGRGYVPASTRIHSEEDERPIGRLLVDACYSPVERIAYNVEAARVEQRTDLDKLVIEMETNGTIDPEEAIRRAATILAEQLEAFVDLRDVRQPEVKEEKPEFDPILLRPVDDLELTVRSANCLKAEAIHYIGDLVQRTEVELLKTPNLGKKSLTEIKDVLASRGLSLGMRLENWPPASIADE
# E. Coli RNA polymerases, sequence (P0A800 whole entry partner): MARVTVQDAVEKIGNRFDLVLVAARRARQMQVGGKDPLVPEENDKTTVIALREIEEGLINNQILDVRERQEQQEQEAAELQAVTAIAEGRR
substance,measurement,setting,value
Ammonium-9-antimonio-III-21-tungsto-VII-sodate [HPA 23],inhibition of E. Coli RNA polymerases,E. Coli RNA polymerases,strong inhibitor
same,inhibition mechanism,"[1]; SAIDS (monkey) virus enzyme, kinetic studies",competitive inhibition
same,ID50,"[1]; SAIDS virus RT, 1 hour at 37° C.",1.1 µg/mL
same,Percent inhibition,[1]; inhibitor 0.5 μg/ml,21%
same,p. mole incorporated,[1]; inhibitor 0.5 μg/ml,0.34 p. mole
same,Percent inhibition,[1]; inhibitor 1 μg/ml,35%
same,p. mole incorporated,[1]; inhibitor 1 μg/ml,0.28 p. mole
same,Percent inhibition,[1]; inhibitor 2.5 μg/ml,80%
same,p. mole incorporated,[1]; inhibitor 2.5 μg/ml,0.09 p. mole
same,Percent inhibition,[1]; inhibitor 5 μg/ml,94.5%
same,p. mole incorporated,[1]; inhibitor 5 μg/ml,0.024 p. mole
same,Percent inhibition,[1]; inhibitor 10 μg/ml,99.5%
same,p. mole incorporated,[1]; inhibitor 10 μg/ml,0.0025 p. mole
same,Percent inhibition,[1]; inhibitor 25 μg/ml,100%
same,p. mole incorporated,[1]; inhibitor 25 μg/ml,0 p. mole
same,inhibition of MLV reverse transcriptase,[2],competitive inhibitor
same,effect on NK and ADCC function,[3],stimulating agent
same,dose required to inhibit the cell growth relative to the one blocking RT activity,cell growth,twenty times higher
same,inhibition of mammalian cellular DNA polymerases,[4],strong inhibitor
same,half life,[5],< 20 min
same,inhibition of E. Coli DNA polymerases,E. Coli DNA polymerases,strong inhibitor
same,inhibition of pancreatic DNase,pancreatic DNase,does not inhibit
same,disease / incubation period,scrapie,can prevent disease or prolong the incubation period
same,inhibition mechanism,"[6]; LAV RT, versus template primer poly A oligo dT12-18",competitive inhibition
same,HPA23 inhibition,[6]; 19 μg/ml,65%
same,HPA23 inhibition,[6]; 40 μg/ml,80%
same,inhibition of E. Coli RNase H,E. Coli RNase H,does not inhibit
same,ID50,[7]; 60 min,30.5 µg/mL
same,ID50,"[7]; listed as HPA23, 60 min",30 µg/mL
same,Percent inhibition,[7]; inhibitor 10 μg/ml,2.4%
same,p. mole incorporated,[7]; inhibitor 10 μg/ml,0.127 p. mole
same,Percent inhibition,[7]; inhibitor 25 μg/ml,18.6%
same,p. mole incorporated,[7]; inhibitor 25 μg/ml,0.013 p. mole
same,Percent inhibition,[7]; inhibitor 50 μg/ml,84.4%
same,p. mole incorporated,[7]; inhibitor 50 μg/ml,0.098 p. mole
same,Percent inhibition,[7]; inhibitor 60 μg/ml,100%
same,p. mole incorporated,[7]; inhibitor 60 μg/ml,0 p. mole
same,ID50,[8]; 1 hour at 37° C.,11 µg/mL
same,Percent inhibition,[8]; inhibitor 0.5 μg/ml,4.5%
same,p. mole incorporated,[8]; inhibitor 0.5 μg/ml,0.105 p. mole
same,Percent inhibition,[8]; inhibitor 1 μg/ml,8.2%
same,p. mole incorporated,[8]; inhibitor 1 μg/ml,0.101 p. mole
same,Percent inhibition,[8]; inhibitor 5 μg/ml,33.6%
same,p. mole incorporated,[8]; inhibitor 5 μg/ml,0.073 p. mole
same,Percent inhibition,[8]; inhibitor 10 μg/ml,43.6%
same,p. mole incorporated,[8]; inhibitor 10 μg/ml,0.062 p. mole
same,Percent inhibition,[8]; inhibitor 20 μg/ml,61.8%
same,p. mole incorporated,[8]; inhibitor 20 μg/ml,0.042 p. mole
same,Percent inhibition,[8]; inhibitor 30 μg/ml,70.2%
same,p. mole incorporated,[8]; inhibitor 30 μg/ml,0.032 p. mole
same,Percent inhibition,[8]; inhibitor 60 μg/ml,94%
same,p. mole incorporated,[8]; inhibitor 60 μg/ml,0.007 p. mole
same,Percent inhibition,[8]; inhibitor 100 μg/ml,100%
same,p. mole incorporated,[8]; inhibitor 100 μg/ml,0 p. mole
same,protection against leukemia,[9],protects
same,absolute numbers of T4 + cells and T4 /T8 ratio,T4 + Lymphocytes,did not change significantly
same,mortality,[10],reduces the mortality
same,effect on β DNA polymerase,β DNA polymerase,without any effect
same,Kaposi's sarcoma evolution,"AIDS or related syndrome; patient 3, 4 months outcome","stabilized their mucosal evolutive K.S., without regression"
same,opportunistic infections,"AIDS or related syndrome; patient one, one year after the end of HPA23 therapy",did not present anymore other opportunistic infections
same,occurrence of spontaneous mammary tumors,[11],reduces the occurance of spontaneous mammary tumors
same,inhibition of pancreatic RNase,pancreatic RNase,does not inhibit
same,LAV detection in T cell cultures,"LAV; patient 1, during each period of treatment, I.V bolus, 1 mg/kg to 3.3 mg/kg",LAV could no longer be detected
same,"LAV isolation, even after cocultivation","LAV; patients 1 and 2, one month after the end of the treatment",LAV was not isolated
same,LAV detection in T cell cocultures,"LAV; patients 2, 3 and 4, 30 days after the end of the treatment",LAV was again detected in the T cell cocultures in two of the three patients (3 and 4) at a very low level
same,LAV isolation from primary cultures and cocultures of patient T cells,"LAV; patients 2, 3 and 4, following two weeks treatment, 200 mg IV infusion per day during 15 days",no virus (LAV) was isolated
same,inhibition of mouse α DNA polymerase,mouse α DNA polymerase,inhibitor
same,recovery of the platelet count to the pretreatment value,each adult patient,between 21st day and the 45th day after
same,platelet toxicity,four patients,some platelet toxicity in three out of four cases
same,renal toxicity,four patients,No new renal toxicity was observed
same,recovery of hepatic transaminases to the pretreatment range,"patients 2, 3 and 4",≤ 21 days
same,elevations of the hepatic transaminases,"patients 2, 3 and 4 during treatment",2 ×normal value
same,activity against lethal encephalomyocarditis infections,encephalomyocarditis,some activity
